Measurements published in publication PMC3384716 (Steroids, 2012).

How the values were obtained:
pS2 mRNA = test: qRT-PCR of 17β-estradiol-induced pS2 mRNA; type: cell-based; settings: 2 hours; compound 51 at 5 μM
PR = target: T1, PR (Homo sapiens, UniProt P06401); test: PR reporter gene assay; type: cell-based; settings: for inhibition of PR transactivation (in words): 10 μM compound
T1 sequence (P06401 165-933 limits assumed): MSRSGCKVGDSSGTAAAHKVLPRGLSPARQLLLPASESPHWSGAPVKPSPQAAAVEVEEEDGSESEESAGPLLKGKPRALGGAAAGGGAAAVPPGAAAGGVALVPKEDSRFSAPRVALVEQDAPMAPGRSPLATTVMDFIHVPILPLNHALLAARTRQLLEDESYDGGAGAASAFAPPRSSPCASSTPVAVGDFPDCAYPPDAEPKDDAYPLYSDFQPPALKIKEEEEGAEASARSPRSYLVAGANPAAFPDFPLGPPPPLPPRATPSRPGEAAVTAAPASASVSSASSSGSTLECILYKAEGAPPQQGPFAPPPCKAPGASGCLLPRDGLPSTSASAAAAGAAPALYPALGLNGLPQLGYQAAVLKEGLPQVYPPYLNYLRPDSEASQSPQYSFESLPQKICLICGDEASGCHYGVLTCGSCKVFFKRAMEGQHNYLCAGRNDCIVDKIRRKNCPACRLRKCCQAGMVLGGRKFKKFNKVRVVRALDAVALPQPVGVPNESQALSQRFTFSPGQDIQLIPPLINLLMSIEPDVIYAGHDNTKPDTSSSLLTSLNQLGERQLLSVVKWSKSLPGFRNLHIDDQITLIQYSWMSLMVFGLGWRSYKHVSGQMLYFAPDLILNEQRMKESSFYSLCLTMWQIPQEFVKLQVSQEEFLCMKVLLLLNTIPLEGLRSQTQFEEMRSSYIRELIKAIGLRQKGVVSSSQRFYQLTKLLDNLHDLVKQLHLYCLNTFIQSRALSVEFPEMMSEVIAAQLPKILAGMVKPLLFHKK

ER = target: T2, ER (Homo sapiens, UniProt P03372); test: ER reporter gene assay; type: cell-based; settings: for inhibition of ER transactivation (in words) / Reporter Assay (% Activity) ER: 10 μM compound; for Reporter Assay (% Activity) ER: 5 nM estradiol, 24 h, % of maximal luciferase activity (100%)
T2 sequence (P03372 1-595): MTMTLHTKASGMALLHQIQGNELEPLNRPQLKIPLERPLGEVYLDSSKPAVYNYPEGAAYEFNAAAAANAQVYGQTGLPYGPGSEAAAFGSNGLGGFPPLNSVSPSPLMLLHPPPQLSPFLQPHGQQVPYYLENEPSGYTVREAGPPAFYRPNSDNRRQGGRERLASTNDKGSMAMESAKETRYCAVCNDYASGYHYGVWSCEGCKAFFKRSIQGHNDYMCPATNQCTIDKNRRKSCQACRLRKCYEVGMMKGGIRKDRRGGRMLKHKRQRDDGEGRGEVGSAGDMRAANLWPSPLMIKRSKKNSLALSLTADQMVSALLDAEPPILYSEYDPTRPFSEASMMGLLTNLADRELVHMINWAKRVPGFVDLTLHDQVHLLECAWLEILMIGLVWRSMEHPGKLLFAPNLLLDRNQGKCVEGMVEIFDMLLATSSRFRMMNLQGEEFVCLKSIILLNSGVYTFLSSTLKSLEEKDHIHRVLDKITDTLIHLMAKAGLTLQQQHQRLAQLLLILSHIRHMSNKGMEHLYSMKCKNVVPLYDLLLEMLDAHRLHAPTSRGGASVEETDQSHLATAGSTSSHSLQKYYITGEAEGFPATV

GR = target: T3, GR (Rattus norvegicus, UniProt P06536); test: GR reporter gene assay; type: cell-based, human; settings: 10 μM compound
T3 sequence (P06536 1-795): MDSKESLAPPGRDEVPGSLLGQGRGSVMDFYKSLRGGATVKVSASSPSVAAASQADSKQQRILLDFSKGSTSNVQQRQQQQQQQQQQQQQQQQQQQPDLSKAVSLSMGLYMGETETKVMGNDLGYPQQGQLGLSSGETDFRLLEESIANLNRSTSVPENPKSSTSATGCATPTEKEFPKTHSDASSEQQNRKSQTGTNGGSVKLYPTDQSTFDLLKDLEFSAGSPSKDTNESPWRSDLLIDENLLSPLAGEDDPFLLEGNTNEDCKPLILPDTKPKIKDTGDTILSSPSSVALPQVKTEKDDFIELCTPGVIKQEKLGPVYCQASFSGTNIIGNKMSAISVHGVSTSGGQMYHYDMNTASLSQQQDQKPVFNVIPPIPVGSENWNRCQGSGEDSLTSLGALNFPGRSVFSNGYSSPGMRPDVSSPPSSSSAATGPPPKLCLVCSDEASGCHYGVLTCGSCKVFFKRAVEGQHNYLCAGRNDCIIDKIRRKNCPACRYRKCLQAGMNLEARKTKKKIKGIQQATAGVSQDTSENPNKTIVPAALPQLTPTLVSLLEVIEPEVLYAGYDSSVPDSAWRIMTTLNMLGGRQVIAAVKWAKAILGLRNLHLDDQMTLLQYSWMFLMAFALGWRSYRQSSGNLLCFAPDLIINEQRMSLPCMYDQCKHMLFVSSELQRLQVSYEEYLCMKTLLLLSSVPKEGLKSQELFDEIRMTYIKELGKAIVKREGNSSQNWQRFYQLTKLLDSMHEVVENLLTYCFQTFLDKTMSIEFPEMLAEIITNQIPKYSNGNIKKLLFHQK

AR = target: T4, AR (Homo sapiens, UniProt P10275); test: AR reporter gene assay; type: cell-based; settings: 10 μM compound
T4 sequence (P10275 1-920): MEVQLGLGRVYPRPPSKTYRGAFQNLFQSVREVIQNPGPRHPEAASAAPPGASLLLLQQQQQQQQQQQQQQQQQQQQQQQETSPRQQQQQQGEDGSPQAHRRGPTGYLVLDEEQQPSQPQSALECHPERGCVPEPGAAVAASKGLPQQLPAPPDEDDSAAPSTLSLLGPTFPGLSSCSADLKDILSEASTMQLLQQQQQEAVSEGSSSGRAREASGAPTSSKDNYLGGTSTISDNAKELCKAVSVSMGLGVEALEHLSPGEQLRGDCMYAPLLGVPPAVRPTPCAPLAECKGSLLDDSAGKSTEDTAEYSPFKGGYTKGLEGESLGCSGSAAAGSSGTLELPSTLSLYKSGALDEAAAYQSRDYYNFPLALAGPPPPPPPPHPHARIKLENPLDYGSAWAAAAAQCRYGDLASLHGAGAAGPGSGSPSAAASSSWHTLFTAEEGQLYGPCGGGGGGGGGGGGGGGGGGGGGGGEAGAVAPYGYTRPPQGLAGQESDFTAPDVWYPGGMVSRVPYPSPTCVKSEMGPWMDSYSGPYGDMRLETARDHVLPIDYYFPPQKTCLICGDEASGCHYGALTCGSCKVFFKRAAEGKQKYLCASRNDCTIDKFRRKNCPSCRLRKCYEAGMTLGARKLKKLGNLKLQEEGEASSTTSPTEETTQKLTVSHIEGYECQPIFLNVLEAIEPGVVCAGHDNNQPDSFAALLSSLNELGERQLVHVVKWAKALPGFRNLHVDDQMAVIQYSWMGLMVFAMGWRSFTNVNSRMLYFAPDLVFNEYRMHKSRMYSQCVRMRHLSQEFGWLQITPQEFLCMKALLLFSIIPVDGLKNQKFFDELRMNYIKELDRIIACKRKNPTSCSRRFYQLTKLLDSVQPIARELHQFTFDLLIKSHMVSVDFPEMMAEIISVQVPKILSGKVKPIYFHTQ

SMILES | Reporter Assay (% Activity) ER (ER) | other results
C[C@]12CC[C@@H]3c4ccc(O)cc4C[C@@H](CCCCCCCCC[S+]([O-])CCCC(F)(F)C(F)(F)F)[C@H]3[C@@H]1CC[C@@H]2O (stereo partly shown) [ICI 182,780, reference compound] | – | effect on 17β-estradiol induction of pS2 mRNA (pS2 mRNA): inhibited induction of pS2 mRNA
Cn1c(=O)c2[nH]cnc2n(C)c1=O [Compound 1, Theophylline, reference compound] | – | inhibition of PR transactivation (in words) (PR): did not inhibit; activity at 10 µM (PR; T47D, read-out: Reporter Assay (% Activity) PR): 105%; inhibition of ER transactivation (in words) (ER): did not inhibit; activity at 10 µM (ER; read-out: Reporter Assay (% Activity) ER): 93%
Cn1c(=O)c2[nH]c(Cc3ccccc3)nc2n(C)c1=O [Compound 4] | 94% | –
CSc1nc2c([nH]1)c(=S)n(C)c(=S)n2C [Compound 13] | 101% | –
CCCSc1nc2c([nH]1)c(=S)n(C)c(=S)n2C [Compound 19] | 79% | –
CCc1nc2c([nH]1)c(=O)n(C)c(=O)n2C [Compound 2] | 106% | –
Cn1c(=O)c2[nH]c(SCc3ccccc3)nc2n(C)c1=O [Compound 8] | 104% | –
CCCCCCCCCCSc1nc2c([nH]1)c(=O)n(C)c(=O)n2C [Compound 37] | 109% | –
CCCCc1nc2c([nH]1)c(=O)n(C)c(=O)n2C [Compound 3] | 88% | –
CSc1nc2c([nH]1)c(=O)n(C)c(=O)n2C [Compound 10] | 6% | –
CCCC(C)Sc1nc2c([nH]1)c(=S)n(C)c(=O)n2C (stereo not shown) [Compound 45] | 94% | inhibition of PR transactivation (in words) (PR): moderately potent inhibitors; inhibition of GR transactivation (in words) (GR): no activity; inhibition of AR transactivation (in words) (AR): no activity; inhibition of ER transactivation (in words) (ER): no activity
CCCSc1nc2c([nH]1)c(=O)n(C)c(=O)n2C [Compound 7] | 111% | –
